The source made the active and inactive calls. No rule for the calls is given here.
Biological target: Dual specificity protein phosphatase 6 (Rattus norvegicus) (UniProt Q64346)
Assay: rat DUSP6 enzyme activity inhibition – biochemical, in vitro, hit/probe assessment, dose response (AID 553)
Conditions: recombinant MKP-3 phosphatase, fluorescence intensity

Dual specificity protein phosphatase 6 (Rattus norvegicus), sequence (Q64346 whole entry, looked up): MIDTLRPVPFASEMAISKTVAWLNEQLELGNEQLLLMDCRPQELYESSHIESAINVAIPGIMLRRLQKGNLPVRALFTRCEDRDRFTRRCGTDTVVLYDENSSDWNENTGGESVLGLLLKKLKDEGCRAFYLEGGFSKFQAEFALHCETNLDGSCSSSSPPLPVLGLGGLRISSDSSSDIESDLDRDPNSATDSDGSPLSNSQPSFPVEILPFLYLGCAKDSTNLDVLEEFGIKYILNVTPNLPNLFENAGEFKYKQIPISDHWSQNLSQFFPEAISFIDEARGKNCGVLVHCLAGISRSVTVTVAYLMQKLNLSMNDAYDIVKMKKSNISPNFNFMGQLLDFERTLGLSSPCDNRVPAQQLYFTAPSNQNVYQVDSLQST

Structure (SMILES) | IC50
O=C1C(C2=C(O)c3ccccc3C2=O)=Nc2ccccc21 | 18.3 µM
N#C/C(=C(/O)CSc1nnc(Cc2cccs2)n1C1CCCCC1)c1nc2ccccc2[nH]1 | > 50 µM (inactive)
O=C1c2cccnc2C(Nc2ccc(S(=O)(=O)N3CCCCCC3)cc2)N1Cc1ccccc1 (configuration not stated) | > 50 µM (inactive)
Oc1ccc2ccccc2c1C=NC12CN3CCN(CN(C3)C1)C2 | > 50 µM (inactive)

More lines, now with the values ahead:

IC50 | Structure (SMILES)
> 50 µM (inactive) | CCOC(=O)c1ccc(NC2c3ncccc3C(=O)N2Cc2ccc(F)cc2)cc1 (configuration not stated)
> 50 µM (inactive) | CCSCCOC(=O)C1=C(C)NC2=C(C(=O)CCC2)C1c1coc2ccccc2c1=O (configuration not stated)
> 50 µM (inactive) | COC(=O)C1=C(C)NC2=C(C(=O)c3ccccc32)C1c1ccc(-c2ccc(C(=O)O)cc2)o1 (configuration not stated)

From PubChem BioAssay AID553 (University of Pittsburgh Molecular Library Screening Center, 2006)
